Laboratory results published in US10059689B2, “Substituted heteroaryl compounds and methods of use” (Sunshine Lake Pharma Co., Ltd., priority 2014, dated 2018).

How the values were obtained:
[1] = Compound stability in human liver microsomes; type: in vitro ADME; details: for half-life: pH 7.4, 37° C., NADPH, read-out: Human T1/2; for CLint scaled: pH 7.4, in vivo CLint extrapolated
Protocol: (§1) Human or rat liver microsomes incubations were conducted in duplicate in polypropylene tubes. The typical incubation mixtures consisted of human or rat liver microsomes (0.5 mg protein/mL), compounds of interest (5 μM) and NADPH (1.0 mM) in a total volume of 200 μL potassium phosphate buffer (PBS, 100 mM, pH 7.4). Compounds were dissolved in DMSO and diluted with PBS such that the final concentration of DMSO was 0.05%. The enzymatic reactions were commenced with the addition of protein after a 3-min preincubation and incubated in a water bath open to the air at 37° C. Reactions were terminated at various time points (0, 5, 10, 15, 30, 60 min) by adding equal volume of ice-cold acetonitrile. The samples were stored at −80° C. until LC/MS/MS assays.
(§2) The concentrations of compounds in the incubation mixtures of human or rat liver microsomes were determined by a LC/MS/MS method. The ranges of the linearity in the concentration range were determined for each tested compounds.
(§3) A parallel incubation was performed using denatured microsomes as the negative control, and reactions were terminated at various time points (0, 15, 60 min) after incubation at 37° C.
(§4) Verapamil (1 μM) was selected as the positive control, and reactions were terminated at various time points (0, 5, 10, 15, 30, 60 min) after incubation at 37° C. Both positive and negative control samples were included in each assay to ensure the integrity of the microsomal incubation system.
(§5) In addition, the stability date of compound in human and rat liver microsomes was also obtained through the following method. Human or rat liver microsomes incubations were conducted in duplicate in polypropylene tubes. The typical incubation mixtures consisted of human or rat liver microsomes (0.5 mg protein/mL), compounds of interest (1.5 μM) and EDTA (1.0 mM) in a total volume of 30 μL potassium phosphate buffer (PBS, 100 mM, pH 7.4). Compounds were dissolved in DMSO and diluted with PBS such that the final concentration of DMSO was 0.2%. The enzymatic reactions were commenced with the addition of 15 μL NADPH (final concentration: 2 mM) after a 10-min preincubation and incubated in a water bath open to the air at 37° C. Reactions were terminated at various time points (0, 15, 30, 60 min) by adding 135 μL acetonitrile (contain IS). The samples were centrifuged at 4000 rpm for 10 min to remove protein, the supernatant was stored at −80° C. until LC/MS/MS assays. Ketanserin (1 μM) was selected as the positive control, and reactions were terminated at various time points (0, 15, 30, 60 min) after incubation at 37° C. Both positive and negative control samples were included in each assay to ensure the integrity of the microsomal incubation system.
(§6) The concentrations of compounds in human or rat liver microsome incubations were plotted as a percentage of the relevant zero time point control for each reaction. The in vivo CLint were extrapolated (ref.: Naritomi, Y.; Terashita, S.; Kimura, S.; Suzuki, A.; Kagayama, A.; and Sugiyama, Y.; Prediction of human hepatic clearance from in vivo animal experiments and in vitro metabolic studies with liver microsomes from animals and humans. Drug Metab. Dispos., 2001, 29: 1316-1324).

[2] = Compound stability in rat liver microsomes; type: in vitro ADME; details: for half-life: pH 7.4, 37° C., NADPH, read-out: Rat T1/2; for CLint scaled: pH 7.4, in vivo CLint extrapolated
Protocol: as §1, §2, §3, §4, §5, §6

JAK1 (h) = target: T1, JAK1 (h) (Homo sapiens, UniProt P23458); experiment: JAK1 (h) kinase assay; type: biochemical
T1 construct: purchased Millipore UK Ltd (contract assay service)
T1 sequence (P23458 whole entry): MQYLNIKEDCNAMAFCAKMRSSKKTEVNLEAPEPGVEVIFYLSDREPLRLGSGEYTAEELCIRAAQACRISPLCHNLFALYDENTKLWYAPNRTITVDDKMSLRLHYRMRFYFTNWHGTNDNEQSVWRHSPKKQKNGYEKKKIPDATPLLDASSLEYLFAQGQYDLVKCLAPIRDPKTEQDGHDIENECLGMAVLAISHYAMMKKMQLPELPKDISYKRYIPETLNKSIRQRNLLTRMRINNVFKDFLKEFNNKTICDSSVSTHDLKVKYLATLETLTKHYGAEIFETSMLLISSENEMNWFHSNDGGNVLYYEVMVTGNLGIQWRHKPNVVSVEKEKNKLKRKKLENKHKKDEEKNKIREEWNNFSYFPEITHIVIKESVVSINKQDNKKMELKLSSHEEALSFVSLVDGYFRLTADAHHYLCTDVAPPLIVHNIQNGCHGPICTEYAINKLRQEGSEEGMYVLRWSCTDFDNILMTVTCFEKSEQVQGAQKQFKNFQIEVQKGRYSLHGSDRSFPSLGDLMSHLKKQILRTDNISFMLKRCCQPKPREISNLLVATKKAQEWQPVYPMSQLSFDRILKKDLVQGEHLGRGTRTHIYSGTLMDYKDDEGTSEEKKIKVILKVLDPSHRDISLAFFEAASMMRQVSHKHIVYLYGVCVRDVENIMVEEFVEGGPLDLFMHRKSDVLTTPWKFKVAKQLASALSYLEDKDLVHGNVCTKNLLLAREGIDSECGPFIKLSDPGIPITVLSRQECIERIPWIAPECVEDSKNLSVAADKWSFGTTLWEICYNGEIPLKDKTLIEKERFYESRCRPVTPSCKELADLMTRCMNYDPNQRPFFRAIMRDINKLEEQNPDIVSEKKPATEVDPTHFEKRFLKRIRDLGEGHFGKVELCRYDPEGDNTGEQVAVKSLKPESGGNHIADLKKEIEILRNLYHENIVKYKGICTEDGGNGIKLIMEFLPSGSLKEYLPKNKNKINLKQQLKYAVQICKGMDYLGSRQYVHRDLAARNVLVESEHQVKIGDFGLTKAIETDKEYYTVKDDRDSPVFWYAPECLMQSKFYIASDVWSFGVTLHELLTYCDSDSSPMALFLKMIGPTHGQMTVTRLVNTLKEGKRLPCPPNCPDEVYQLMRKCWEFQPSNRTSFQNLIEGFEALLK
Protocol: (§7) The above assay procedure can be used to determine the IC50 for inhibition and/or the inhibition constant, Ki. The IC50 is defined as the concentration of compound required to reduce the enzyme activity by 50% under the condition of the assay. The IC50 value is estimated by preparing a 10 point curve using a ½ log dilution series (for example, a typical curve may be prepared using the following compound concentrations: 3 μM, 1 μM, 0.3 μM, 0.1 μM, 0.03 μM, 0.01 μM, 0.003 μM, 0.001 μM, 0.0003 μM and 0 μM).
(§8) JAK1 (h) is incubated with 20 mM Tris/HCl pH 7.5, 0.2 mM EDTA, 500 μM GEEPLYWSFPAKKK, 10 mM MgAcetate and [γ-^33P-ATP] (specific activity approx. 500 cpm/pmol, concentration as required). The reaction is initiated by the addition of the MgATP mix. After incubation for 40 minutes at room temperature, the reaction is stopped by the addition of 3% phosphoric acid solution. 10 μL of the reaction is then spotted onto a P30 filtermat and washed three times for 5 minutes in 75 mM phosphoric acid and once in methanol prior to drying and scintillation counting.
(§9) The kinase assays described herein were performed at Millipore UK Ltd, Dundee Technology Park, Dundee DD2 1SW, UK.

JAK2 (h) = target: T2, JAK2 (h) (Homo sapiens, UniProt O60674); experiment: JAK2 (h) kinase assay; type: biochemical
T2 construct: purchased Millipore UK Ltd (contract assay service)
T2 sequence (O60674 whole entry): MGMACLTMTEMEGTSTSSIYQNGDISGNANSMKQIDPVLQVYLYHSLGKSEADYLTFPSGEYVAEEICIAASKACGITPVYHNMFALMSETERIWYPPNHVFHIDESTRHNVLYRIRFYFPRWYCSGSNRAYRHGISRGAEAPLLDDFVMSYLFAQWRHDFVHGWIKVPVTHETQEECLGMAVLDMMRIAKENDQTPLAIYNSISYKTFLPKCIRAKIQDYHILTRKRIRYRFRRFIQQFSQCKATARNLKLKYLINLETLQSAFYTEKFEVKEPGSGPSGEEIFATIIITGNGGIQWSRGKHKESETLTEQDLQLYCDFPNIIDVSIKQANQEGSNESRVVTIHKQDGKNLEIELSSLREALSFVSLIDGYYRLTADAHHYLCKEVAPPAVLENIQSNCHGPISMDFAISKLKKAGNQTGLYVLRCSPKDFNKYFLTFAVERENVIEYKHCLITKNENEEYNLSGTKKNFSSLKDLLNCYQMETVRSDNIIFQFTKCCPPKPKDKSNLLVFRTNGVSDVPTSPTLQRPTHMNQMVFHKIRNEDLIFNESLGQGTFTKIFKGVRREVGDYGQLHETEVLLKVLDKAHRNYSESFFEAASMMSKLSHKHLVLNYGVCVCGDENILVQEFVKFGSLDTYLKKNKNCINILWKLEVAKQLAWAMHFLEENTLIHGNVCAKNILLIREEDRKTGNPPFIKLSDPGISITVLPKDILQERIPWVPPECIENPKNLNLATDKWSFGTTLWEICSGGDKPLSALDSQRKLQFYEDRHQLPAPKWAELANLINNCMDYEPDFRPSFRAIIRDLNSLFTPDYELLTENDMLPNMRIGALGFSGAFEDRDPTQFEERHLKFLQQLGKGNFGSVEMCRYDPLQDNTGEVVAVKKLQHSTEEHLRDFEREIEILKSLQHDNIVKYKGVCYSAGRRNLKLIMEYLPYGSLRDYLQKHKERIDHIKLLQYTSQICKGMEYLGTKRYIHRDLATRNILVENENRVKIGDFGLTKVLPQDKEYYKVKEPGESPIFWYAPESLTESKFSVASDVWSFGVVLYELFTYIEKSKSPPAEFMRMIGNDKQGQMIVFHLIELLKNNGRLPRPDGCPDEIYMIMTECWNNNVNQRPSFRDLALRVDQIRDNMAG
Protocol: as §7
as §8, with “JAK2 (h)” for “JAK1 (h)”, “with 8” for “with 20”, “mM MOPS” for “mM Tris/HCl”, “pH 7.0,” for “pH 7.5,”, “EDTA, 100” for “EDTA, 500”, “μM […],” for “μM GEEPLYWSFPAKKK,”
as §9

[3] = Pharmacokinetics after intravenous and oral administration in rats; type: in vivo; details: for clearance (CL) / AUC(0-t) / half-life / Vd: iv dosing, 1 mg/kg; for F: oral bioavailability; for AUC(0-t) / half-life / Vd: rat, plasma; for Vd: read-out: Vss
Protocol: The LC/MS/MS system used in the analysis consists of an Agilent 1200 Series vacuum degasser, binary pump, well-plate autosampler, thermostatted column compartment, the Agilent G6430 Triple Quadrupole Mass Spectrometer with an electrosprayionization (ESI) source. Quantitative analysis was carried out using MRM mode. The parameters for MRM transitions are in the Table A.
An Agilent XDB-C18, 2.1×30 mm, 3.5 μM column was used for the analysis. 5 μL of the samples were injected. Analysis condition: The mobile phase was 0.1% formic acid in water (A) and 0.1% formic acid in methanol (B). The flow rate was 0.4 mL/min. And the gradient of Mobile phase was in the Table B.
Alternatively, an Agilent 6330 series LC/MS/MS spectrometer equipped with G1312A binary pumps, a G1367A autosampler and a G1314C UV detector were used in the analysis. An ESI source was used on the LC/MS/MS spectrometer. The analysis was done in positive ion mode as appropriate and the MRM transition for each analyte was optimized using standard solution. A Capcell MP-C18 100×4.6 mm I.D., […] column (Phenomenex, Torrance, Calif., USA) was used during the analysis. The mobile phase was 5 mM ammonia acetate, 0.1% MeOH in water (A): 5 mM ammonia acetate, 0.1% MeOH in acetonitrile (B) (70:30, v/v). The flow rate was 0.6 mL/min. Column was maintained at ambient temperature. 20 μL of the samples were injected.
The compounds disclosed herein are assessed in pharmacokinetic studies in mice, rats, dogs or monkeys. The compounds are administered as a water solution, 2% HPMC+1% TWEEN®80 in water solution, 5% DMSO+5% solutol in saline, 4% MC suspension or capsule. For the intravenous administration, the animals are generally given at 1 or 2 mg/kg dose. For the oral (p.o.) dosing, mice and rats are generally given 5 or 10 mg/kg dose, and dogs and monkeys are generally given 10 mg/kg dose. The blood samples (0.3 mL) are drawn at 0.25, 0.5, 1.0, 2.0, 3.0, 4.0, 6.0, 8.0, 12 and 24 h time points or 0.083, 0.25, 0.5, 1.0, 2.0, 4.0, 6.0, 8.0 and 24 h time points and centrifuged at 3,000 or 4000 rpm for 2 to 10 min. The plasma solutions are collected, and stored at −20° C. or −70° C. until analyzed by LC/MS/MS as described above.

SMILES	half-life [1]	CLint scaled [1]	half-life [2]	CLint scaled [2]	IC50 (JAK1 (h))	IC50 (JAK2 (h))	clearance (CL) [3]	F [3]	AUC(0-t) [3]	half-life [3]	Vd [3]
Cc1cc(Nc2ncc(Cl)c(NC3CCN(c4ccc(C#N)cn4)CC3)n2)nn1C [Ex. 2]	36.3 min	47.9 mL/min/kg	17.7 min	140 mL/min/kg	0.6 nM	3 nM	–	–	–	–	–
Cc1cc(Nc2ncc(Cl)c(NC3CCN(c4ccc(C#N)cn4)CC3)n2)n[nH]1 [Ex. 3]	163 min	10.7 mL/min/kg	74.5 min	33.3 mL/min/kg	< 0.3 nM	2 nM	1.03 L/h/kg	112.01%	1060 ng·h/mL	56.4 min	0.94 L/kg
CN(c1nc(Nc2cnn(C)c2)ncc1Cl)C1CCN(c2ccc(C#N)cn2)C1 (centres unmarked) [Ex. 7, 6-(3-((5-chloro-2-((1-methyl-1H-pyrazol-4-yl)amino)pyrimidin-4-yl) (methyl)amino)pyrrolidin-1-yl)nicotinonitrile]	14.5 min	120 mL/min/kg	9.2 min	270 mL/min/kg	22 nM	–	2.26 L/h/kg	67.1%	445 ng·h/mL	20.4 min	0.86 L/kg
Cc1cc(Nc2ncc(Cl)c(N(C)C3CCN(c4ccc(C#N)cn4)CC3)n2)nn1C [Ex. 9, 6-(4-((5-chloro-2-((1,5-dimethyl-1H-pyrazol-3-yl)amino)pyrimidin-4-yl) (methyl)amino)piperidin-1-yl)nicotinonitrile]	17.9 min	96.9 mL/min/kg	10.4 min	240 mL/min/kg	4 nM	–	2.93 L/h/kg	45.8%	350 ng·h/mL	54 min	2.63 L/kg
Cc1nn(C)cc1Nc1ncc(Cl)c(N(C)C2CCN(c3ccc(C#N)cn3)CC2)n1 [Ex. 14, 6-(4-((5-chloro-2-((1,3-dimethyl-1H-pyrazol-4-yl)amino)pyrimidin-4-yl) (methyl)amino)piperidin-1-yl)nicotinonitrile]	7.99 min	217 mL/min/kg	1.71 min	1450 mL/min/kg	1 nM	175 nM	3.67 L/h/kg	107.1%	273 ng·h/mL	29.4 min	1.19 L/kg
CCC1CN(c2ccc(C#N)nn2)CCC1Nc1nc(Nc2cc(C)n(C)n2)ncc1Cl (centres unmarked) [Ex. 15, 6-(4-((5-chloro-2-((1,5-dimethyl-1H-pyrazol-3-yl)amino)pyrimidin-4-yl)amino)-3-ethylpiperidin-1-yl)pyridazine-3-carbonitrile]	23.3 min	74.5 mL/min/kg	35 min	71 mL/min/kg	0.6 nM	0.6 nM	0.52 L/h/kg	92.2%	1930 ng·h/mL	45.6 min	0.48 L/kg
Cn1cc2ccc(Nc3ncc(Cl)c(NC4CCN(c5ccc(C#N)nn5)CC4)n3)cc2n1 [Ex. 25]	25.7 min	67.6 mL/min/kg	20.8 min	120 mL/min/kg	< 0.3 nM	–	0.84 L/h/kg	62.8%	1220 ng·h/mL	28.2 min	0.33 L/kg
Cn1nc(Nc2ncc(Cl)c(NC3CCN(c4ccc(C#N)cn4)CC3)n2)cc1C(C)(C)O [Ex. 26, 6-(4-((5-chloro-2-((5-(2-hydroxypropan-2-yl)-1-methyl-1H-pyrazol-3-yl)amino)pyrimidin-4-yl)amino)piperidin-1-yl)nicotinonitrile]	–	–	–	–	1 nM	0.8 nM	–	–	–	–	–
